Reference: patent US9328112B2, “Tetracyclic CDK9 kinase inhibitors” (AbbVie Inc., priority 2014, dated 2016)

What was measured:
H929 cells = experiment: Cell viability assay (Cell TiterGlo); assay type: cell-based; settings: Homo sapiens, NCI-H929, 24 hours at 37° C., Cell TiterGlo luminescence
Experimental: The cell viability assay was performed using H929 cells. Cells were seeded in 96-well plates at 10,000 cells/well and, after overnight incubation, treated with compounds in a dose response of 3-fold dilutions from 10 μM to 0.005 μM ([…], 0.1% final DMSO concentration). After 24 hours at 37° C., cell viability was measured using Cell TiterGlo reagent (Promega) with a luminescence reader.

CDK9/Cyclin T1 = CDK9/Cyclin T1 (Homo sapiens (Human), UniProt P50750); experiment: CDK9 enzyme assay (LANCE ULight TR-FRET kinase assay); assay type: biochemical; settings: 1000 μM ATP, 100 nM ULight MBP, kinase reaction 1 hour
Experimental: CDK9 enzyme activities were measured using LANCE ULight TR-FRET kinase assay reagents (PerkinElmer, Waltham, Mass.). Compounds were diluted in 100% DMSO then diluted with 1:10 in serine/threonine kinase assay buffer containing 20 mM HEPES, 10 mM MgCl2, […], and 0.0075% Triton X-100. Equal volume of the compound dilutions was added to a final reaction mixture containing LANCE detection buffer (PerkinElmer CR97-100), 100 nM ULight MBP (PerkinElmer TRF0109M), 1000 μM ATP, and CDK9/Cyclin T1 (Carna Biosciences 04-110). The kinase reaction was carried out for 1 hour before addition of stopping buffer to a final of 20 mM EDTA and 0.5 nM of LANCE Ultra Europium anti-phospho-MBP antibody (PerkinElmer TRF0201M) in LANCE detection buffer. The reaction was incubated for 1 hour and the signal was read in Envision in TR-FRET mode (excitation at 320 nm and emission at 615/665 nm).

Chain of CDK9/Cyclin T1 (P50750 whole entry): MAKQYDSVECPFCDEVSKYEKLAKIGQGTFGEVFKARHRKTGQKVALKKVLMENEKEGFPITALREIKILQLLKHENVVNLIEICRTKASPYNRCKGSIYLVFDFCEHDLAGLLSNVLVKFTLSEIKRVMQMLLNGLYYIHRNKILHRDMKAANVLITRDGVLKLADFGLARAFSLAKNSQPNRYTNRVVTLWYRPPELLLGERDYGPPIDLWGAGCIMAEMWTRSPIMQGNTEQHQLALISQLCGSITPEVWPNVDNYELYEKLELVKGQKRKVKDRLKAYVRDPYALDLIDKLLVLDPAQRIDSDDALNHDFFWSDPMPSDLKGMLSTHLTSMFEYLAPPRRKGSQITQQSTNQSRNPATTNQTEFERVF
Chain of CDK9/Cyclin T1 (O60563 whole entry partner): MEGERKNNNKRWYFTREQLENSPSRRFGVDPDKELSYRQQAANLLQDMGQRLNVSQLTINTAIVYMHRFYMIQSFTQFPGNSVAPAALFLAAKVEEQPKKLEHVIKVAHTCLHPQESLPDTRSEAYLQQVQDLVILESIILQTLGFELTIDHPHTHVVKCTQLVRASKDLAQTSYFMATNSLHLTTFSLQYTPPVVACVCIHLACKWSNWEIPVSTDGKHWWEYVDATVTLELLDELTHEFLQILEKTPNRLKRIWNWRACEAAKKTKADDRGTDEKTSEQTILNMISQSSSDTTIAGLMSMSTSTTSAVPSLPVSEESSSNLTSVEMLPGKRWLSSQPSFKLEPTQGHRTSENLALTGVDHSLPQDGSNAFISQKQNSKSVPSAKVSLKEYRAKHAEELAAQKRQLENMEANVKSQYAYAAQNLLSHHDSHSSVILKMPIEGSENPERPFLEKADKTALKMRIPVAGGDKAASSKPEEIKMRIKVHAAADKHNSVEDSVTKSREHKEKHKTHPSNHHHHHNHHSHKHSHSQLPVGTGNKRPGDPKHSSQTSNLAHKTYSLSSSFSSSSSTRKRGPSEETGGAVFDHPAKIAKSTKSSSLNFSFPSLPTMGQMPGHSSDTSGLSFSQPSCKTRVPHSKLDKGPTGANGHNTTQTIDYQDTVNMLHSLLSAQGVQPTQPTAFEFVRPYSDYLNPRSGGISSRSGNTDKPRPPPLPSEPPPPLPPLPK

Row | SMILES | IC50 (H929 cells) | IC50 (CDK9/Cyclin T1)
1 | CN1Cc2c(C3=CCN(CC(=O)N4CC(O)C4)CC3)[nH]c3nccc(c23)-c2cc(F)ccc21 [Example 18, 2-[4-(10-fluoro-7-methyl-6,7-dihydro-4H-3,4,7-triazadibenzo[cd,f]azulen-5-yl)-3,6-dihydropyridin-1(2H)-yl]-1-(3-hydroxyazetidin-1-yl)ethanone] | 160 nM | 44 nM
2 | CN(CCO)C(=O)CN1CC=C(c2[nH]c3nccc4c3c2CN(C)c2ccc(F)cc2-4)CC1 [Example 19, 2-[4-(10-fluoro-7-methyl-6,7-dihydro-4H-3,4,7-triazadibenzo[cd,f]azulen-5-yl)-3,6-dihydropyridin-1(2H)-yl]-N-(2-hydroxyethyl)-N-methylacetamide] | 8 nM | 48 nM
3 | CC1c2c(C3=CCN(S(C)(=O)=O)CC3)[nH]c3nccc(c23)-c2cc(F)ccc2N1C (stereo not shown) [Example 20, 10-fluoro-6,7-dimethyl-5-[1-(methylsulfonyl)-1,2,3,6-tetrahydropyridin-4-yl]-6,7-dihydro-4H-3,4,7-triazadibenzo[cd,f]azulene] | 47 nM | 110 nM
4 | CN1Cc2c(C3=CCN(CC(=O)N(C)C4CC(O)C4)CC3)[nH]c3nccc(c23)-c2cc(F)ccc21 (stereo not shown) [Example 24, 2-[4-(10-fluoro-7-methyl-6,7-dihydro-4H-3,4,7-triazadibenzo[cd,f]azulen-5-yl)-3,6-dihydropyridin-1(2H)-yl]-N-(3-hydroxycyclobutyl)-N-methylacetamide] | 27 nM | 40 nM
5 | CN1Cc2c(C3CCN(CC(=O)N4CCC[C@H]4CO)CC3)[nH]c3nccc(c23)-c2cc(F)ccc21 [Example 26, 2-[4-(10-fluoro-7-methyl-6,7-dihydro-4H-3,4,7-triazadibenzo[cd, f]azulen-5-yl)piperidin-1-yl]-1-[(2S)-2-(hydroxymethyl)pyrrolidin-1-yl]ethanone] | 150 nM | 93 nM
6 | CCOC(=O)C1c2c(C3=CCNCC3)[nH]c3nccc(c23)-c2cc(F)ccc2N1C (stereo not shown) [Example 28, ethyl 10-fluoro-7-methyl-5-(1,2,3,6-tetrahydropyridin-4-yl)-6,7-dihydro-4H-3,4,7-triazadibenzo[cd,f]azulene-6-carboxylate] | 25 nM | 150 nM
7 | CC(C)[C@@H](NC1CC=C(c2[nH]c3nccc4c3c2CN(C)c2ccc(F)cc2-4)CC1)C(=O)O (stereo partly drawn) [Example 29, N-[4-(10-fluoro-7-methyl-6,7-dihydro-4H-3,4,7-triazadibenzo[cd,f]azulen-5-yl)cyclohex-3-en-1-yl]-D-valine] | 94 nM | 46 nM
8 | CN1Cc2c(C3=CCC(NCC(=O)O)CC3)[nH]c3nccc(c23)-c2cc(F)ccc21 (stereo not shown) [Example 31, N-[4-(10-fluoro-7-methyl-6,7-dihydro-4H-3,4,7-triazadibenzo[cd,f]azulen-5-yl)cyclohex-3-en-1-yl]glycine] | 70 nM | 86 nM
9 | CN1c2ccc(F)cc2-c2ccnc3[nH]c(C4=CCNCC4)c(c23)C1C(=O)O (stereo not shown) [Example 33, 10-fluoro-7-methyl-5-(1,2,3,6-tetrahydropyridin-4-yl)-6,7-dihydro-4H-3,4,7-triazadibenzo[cd,f]azulene-6-carboxylic acid] | 150 nM | 540 nM
10 | CN1Cc2c(C3=CCC(N4CCC[C@H]4C(=O)O)CC3)[nH]c3nccc(c23)-c2cc(F)ccc21 (stereo partly drawn) [Example 37, 1-[4-(10-fluoro-7-methyl-6,7-dihydro-4H-3,4,7-triazadibenzo[cd,f]azulen-5-yl)cyclohex-3-en-1-yl]-L-proline] | 290 nM | 160 nM
11 | CN1Cc2c(C3=CCC(N[C@@H](CO)C(=O)O)CC3)[nH]c3nccc(c23)-c2cc(F)ccc21 (stereo partly drawn) [Example 38, N-[4-(10-fluoro-7-methyl-6,7-dihydro-4H-3,4,7-triazadibenzo[cd,f]azulen-5-yl)cyclohex-3-en-1-yl]-L-serine] | 270 nM | 91 nM
12 | CCC[C@H](NC1CC=C(c2[nH]c3nccc4c3c2CN(C)c2ccc(F)cc2-4)CC1)C(=O)O (stereo partly drawn) [Example 39, N-[4-(10-fluoro-7-methyl-6,7-dihydro-4H-3,4,7-triazadibenzo[cd,f]azulen-5-yl)cyclohex-3-en-1-yl]-L-norvaline] | 99 nM | 130 nM
13 | CN1Cc2c(C3=CCN(CC(=O)N4CC[C@H](O)C4)CC3)[nH]c3nccc(c23)-c2cc(F)ccc21 [Example 42, 2-[4-(10-fluoro-7-methyl-6,7-dihydro-4H-3,4,7-triazadibenzo[cd,f]azulen-5-yl)-3,6-dihydropyridin-1(2H)-yl]-1-[(3S)-3-hydroxypyrrolidin-1-yl]ethanone] | 79 nM | 48 nM
14 | CN1Cc2c(-c3ccc(S(C)(=O)=O)cc3)[nH]c3nccc(c23)-c2cc(F)ccc21 [Example 43, 10-fluoro-7-methyl-5-[4-(methylsulfonyl)phenyl]-6,7-dihydro-4H-3,4,7-triazadibenzo[cd,f]azulene] | 230 nM | 66 nM

More lines, now with the values ahead:

Row | IC50 (H929 cells) | IC50 (CDK9/Cyclin T1) | SMILES
15 | 9 nM | 70 nM | CN1Cc2c(C3=CCN(CC(=O)N4CCC[C@H]4CO)CC3)[nH]c3nccc(c23)-c2cc(F)ccc21 [Example 17, 2-[4-(10-fluoro-7-methyl-6,7-dihydro-4H-3,4,7-triazadibenzo[cd,f]azulen-5-yl)-3,6-dihydropyridin-1(2H)-yl]-1-[(2S)-2-(hydroxymethyl)pyrrolidin-1-yl]ethanone]
16 | 460 nM | 400 nM | CN1Cc2c(C3CCNCC3)[nH]c3nccc(c23)-c2cc(F)ccc21 [Example 21, 10-fluoro-7-methyl-5-(piperidin-4-yl)-6,7-dihydro-4H-3,4,7-triazadibenzo[cd,f]azulene]
17 | 65 nM | 22 nM | CNS(=O)(=O)CC(=O)N1CC=C(c2[nH]c3nccc4c3c2CN(C)c2ccc(F)cc2-4)CC1 [Example 25, 2-[4-(10-fluoro-7-methyl-6,7-dihydro-4H-3,4,7-triazadibenzo[cd,f]azulen-5-yl)-3,6-dihydropyridin-1(2H)-yl]-N-methyl-2-oxoethanesulfonamide]
18 | 210 nM | 91 nM | CN(CCO)C(=O)CN1CCC(c2[nH]c3nccc4c3c2CN(C)c2ccc(F)cc2-4)CC1 [Example 27, 2-[4-(10-fluoro-7-methyl-6,7-dihydro-4H-3,4,7-triazadibenzo[cd,f]azulen-5-yl)piperidin-1-yl]-N-(2-hydroxyethyl)-N-methylacetamide]
19 | 100 nM | 100 nM | C[C@H](NC1CC=C(c2[nH]c3nccc4c3c2CN(C)c2ccc(F)cc2-4)CC1)C(=O)O (stereo partly drawn) [Example 30, N-[4-(10-fluoro-7-methyl-6,7-dihydro-4H-3,4,7-triazadibenzo[cd,f]azulen-5-yl)cyclohex-3-en-1-yl]-L-alanine]
20 | 170 nM | 56 nM | CN1Cc2c(C3=CCC(N[C@H](C(=O)O)c4ccccc4)CC3)[nH]c3nccc(c23)-c2cc(F)ccc21 (stereo partly drawn) [Example 32, (2S)-{[4-(10-fluoro-7-methyl-6,7-dihydro-4H-3,4,7-triazadibenzo[cd,f]azulen-5-yl)cyclohex-3-en-1-yl]amino}(phenyl)acetic acid]
21 | 92 nM | 120 nM | CC(C)[C@H](NC1CC=C(c2[nH]c3nccc4c3c2CN(C)c2ccc(F)cc2-4)CC1)C(=O)O (stereo partly drawn) [Example 34, N-[4-(10-fluoro-7-methyl-6,7-dihydro-4H-3,4,7-triazadibenzo[cd,f]azulen-5-yl)cyclohex-3-en-1-yl]-L-valine]
22 | 91 nM | 61 nM | CN1Cc2c(C3=CCC(N[C@@H](Cc4ccccc4)C(=O)O)CC3)[nH]c3nccc(c23)-c2cc(F)ccc21 (stereo partly drawn) [Example 35, N-[4-(10-fluoro-7-methyl-6,7-dihydro-4H-3,4,7-triazadibenzo[cd,f]azulen-5-yl)cyclohex-3-en-1-yl]-L-phenylalanine]
23 | 25 nM | 64 nM | CN1Cc2c(C3=CCC(N[C@H](C(=O)O)C(C)(C)C)CC3)[nH]c3nccc(c23)-c2cc(F)ccc21 (stereo partly drawn) [Example 36, N-[4-(10-fluoro-7-methyl-6,7-dihydro-4H-3,4,7-triazadibenzo[cd,f]azulen-5-yl)cyclohex-3-en-1-yl]-3-methyl-L-valine]
24 | 320 nM | 81 nM | CN1Cc2c(C3=CCC(N[C@@H](Cc4ccc(O)cc4)C(=O)O)CC3)[nH]c3nccc(c23)-c2cc(F)ccc21 (stereo partly drawn) [Example 40, N-[4-(10-fluoro-7-methyl-6,7-dihydro-4H-3,4,7-triazadibenzo[cd,f]azulen-5-yl)cyclohex-3-en-1-yl]-L-tyrosine]
25 | 1100 nM | 150 nM | CN1Cc2c(C3=CCC(C(=O)O)CC3)[nH]c3nccc(c23)-c2cc(F)ccc21 (stereo not shown) [Example 41, 4-(10-fluoro-7-methyl-6,7-dihydro-4H-3,4,7-triazadibenzo[cd,f]azulen-5-yl)cyclohex-3-ene-1-carboxylic acid]
26 | 490 nM | 130 nM | CN1Cc2c(-c3ccncc3)[nH]c3nccc(c23)-c2cc(F)ccc21 [Example 44, 10-fluoro-7-methyl-5-(pyridin-4-yl)-6,7-dihydro-4H-3,4,7-triazadibenzo[cd,f]azulene]
